Columns and labels:
Assay type in all cases: in vivo
[1] = system: Echinochloa crus-galli (ECHCG); experiment: Pre-emergence herbicidal action against ECHCG
Summary of the method: (§1)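 Application rates ran to 320 g/ha or lower, with several dosages tested on the same weeds. The compound, as wettable powder or emulsion concentrate, is sprayed pre-emergence onto soil over sown seeds; greenhouse growth follows, and effect is rated visually after roughly 3 weeks.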

Viola tricolor (VIOTR) = experiment: Post-emergence herbicidal action against VIOTR
Summary of the method: (§2)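 Doses of 320 g/ha or lower, suffixes a, b and c marking different dosages, were applied post-emergence at the one-leaf stage in 600 l/ha water with 0.5% additive. Damage was assessed visually after about 3 weeks in the greenhouse.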

[2] = system: Alopecurus myosuroides (ALOMY); experiment: Post-emergence herbicidal action against ALOMY; conditions: visual rating about 3 weeks after treatment vs untreated controls (100% = plants have died, 0% = like control plants)
Summary of the method: as §2

Setaria viridis (SETVI) = experiment: Pre-emergence herbicidal action against SETVI
Summary of the method: as §1

[3] = system: Verconica persica (VERPE); experiment: Post-emergence herbicidal action against VERPE
Summary of the method: as §2

[4] = system: Amaranthus retroflexus (AMARE); experiment: Pre-emergence herbicidal action against AMARE; conditions: visual scoring after about 3 weeks vs untreated controls
Summary of the method: as §1

[5] = system: Echinochloa crus-galli (ECHCG); experiment: Post-emergence herbicidal action against ECHCG
Summary of the method: as §2

[6] = system: Matricaria inodora (MATIN); experiment: Pre-emergence herbicidal action against MATIN
Summary of the method: as §1

[7] = system: Amaranthus retroflexus (AMARE); experiment: Post-emergence herbicidal action against AMARE
Summary of the method: as §2

[8] = system: Pharbitis purpurea (PHBPU); experiment: Post-emergence herbicidal action against PHBPU
Summary of the method: as §2

[9] = 80 g/ha, visual rating about 3 weeks after treatment vs untreated controls (100% = plants have died, 0% = like control plants)
[10] = 320 g/ha, visual rating about 3 weeks after treatment

| SMILES | Pre-emergence action against ECHCG in % ([1]; dosage 80 g/ha) [%] | Pre-emergence action against ECHCG in % ([1]; dosage 320 g/ha) [%] | Post-emergence action against VIOTR in % (Viola tricolor (VIOTR); 80 g/ha) [%] | Post-emergence action against VIOTR in % (Viola tricolor (VIOTR); 320 g/ha) [%] | Post-emergence action against ALOMY in % ([2]; 80 g/ha) [%] | Post-emergence action against ALOMY in % ([2]; 320 g/ha) [%] | Pre-emergence action against SETVI in % (Setaria viridis (SETVI); dosage 80 g/ha) [%] | Pre-emergence action against SETVI in % (Setaria viridis (SETVI); dosage 320 g/ha) [%] | Post-emergence action against VERPE in % ([3]; 320 g/ha, VERPE) [%] | Post-emergence action against VERPE in % ([3]; dosage 80 g/ha) [%] | Pre-emergence action against AMARE in % ([4]; 80 g/ha) [%] | Pre-emergence action against AMARE in % ([4]; 320 g/ha) [%] | Post-emergence action against ECHCG in % ([5]; dosage 80 g/ha) [%] | Post-emergence action against ECHCG in % ([5]; dosage 320 g/ha) [%] | Pre-emergence action against MATIN in % ([6]; dosage 320 g/ha) [%] | Post-emergence action against AMARE in % [7, 9] [%] | Post-emergence action against AMARE in % [7, 10] [%] | Post-emergence action against PHBPU in % ([8]; dosage 320 g/ha) [%] | Pre-emergence action against MATIN in % ([6]; dosage 80 g/ha) [%] | Post-emergence action against PHBPU in % ([8]; dosage 80 g/ha) [%] |
| --- | --- | --- | --- | --- | --- | --- | --- | --- | --- | --- | --- | --- | --- | --- | --- | --- | --- | --- | --- | --- |
| O=C(O)COc1nn(-c2ccccn2)c(-c2cncnc2)c1Br [Example I-66] | 80 | 100 | 80 | 90 | 100 | 100 | 100 | 100 | 90 | 90 | 90 | 100 | 80 | 90 | 90 | 80 | 90 | 80 |  |  |
| CCOC(=O)COc1nn(-c2nc(F)ccc2F)c(-c2cncc(F)c2)c1Br [Example I-193] | 90 | 100 | 80 | 90 | 90 | 100 | 100 | 100 | 80 | 80 | 80 | 100 | 90 | 90 | 90 | 80 | 80 | 100 | 90 | 90 |
| C[C@@H](Oc1nn(-c2ncccc2F)c(-c2ccc(F)nc2)c1I)C(=O)O [Example I-343] |  | 100 | 80 | 80 | 90 | 100 | 100 | 100 | 80 | 80 | 100 | 100 | 90 | 90 | 100 | 80 | 80 | 90 |  |  |
| COC(=O)C(C)COC(=O)[C@@H](C)Oc1nn(-c2ccccn2)c(-c2cncc(F)c2)c1Br (stereo partly drawn) [Example I-188] | 100 | 100 | 80 | 80 | 80 | 90 | 100 | 100 | 90 | 80 | 100 | 100 | 80 | 90 | 90 |  | 80 | 90 | 90 | 90 |
| CCOC(=O)[C@@H](C)Oc1nn(-c2ccccn2)c(-c2cncc(F)c2)c1Cl [Example I-184] | 90 | 100 | 80 | 90 | 80 | 90 | 100 | 100 | 90 | 90 | 100 | 100 | 90 | 90 | 90 | 80 | 80 | 90 | 90 | 90 |
| CCOC(=O)COc1nn(-c2ccccn2)c(-c2ccc(F)nc2)c1Cl [Example I-85] | 100 | 100 | 100 | 100 |  | 100 | 100 | 100 | 90 | 90 | 90 | 100 | 90 | 90 | 100 | 90 | 90 | 90 | 100 | 90 |
| COC(=O)C(C)COC(=O)[C@@H](C)Oc1nn(-c2ccccn2)c(-c2cncc(F)c2)c1Cl (stereo partly drawn) [Example I-198] | 90 | 100 |  | 80 | 80 | 80 | 100 | 100 | 80 | 80 | 100 | 100 | 80 | 80 | 90 | 80 | 90 | 90 | 90 | 80 |
